pKd: −log10 of the molar value.

The target in one test is WDR5 (Homo sapiens (Human), UniProt P61964). The experiment in a line: Surface Plasmon Resonance (SPR) assay, KD and residence time. As to conditions: surface plasmon resonance (SPR) assay; read-out: WDR5 binding affinity (KD). Format: binding.
`C[C@@H]1CN(c2cc(F)c(-c3ccc(OCC4CC4)nc3)cc2NC(=O)c2c[nH]c(=O)cc2C(F)F)C[C@H](C)N1C` [Example 314, N-[5-[6-(cyclopropylmethoxy)pyridin-3-yl]-4-fluoro-2-[(3R,5S)-3,4,5-trimethylpiperazin-1-yl]phenyl]-4-(difluoromethyl)-6-oxo-1H-pyridine-3-carboxamide]: the pKd was 8.78. Take `C[C@@H]1CN(c2cc(F)c(-c3cccc(OCC4CC4)c3)cc2NC(=O)c2c[nH]c(=O)cc2C(F)(F)F)C[C@H](C)N1C` [Example 125, N-[5-[3-(cyclopropylmethoxy)phenyl]-4-fluoro-2-[(3R,5S)-3,4,5-trimethylpiperazin-1-yl]phenyl]-6-oxo-4-(trifluoromethyl)-1H-pyridine-3-carboxamide]: the pKd was 7.96. Consider `CC1CN(c2cc(F)c(-c3ccc(OCC4CC4)nc3)cc2NC(=O)c2c[nH]c(=O)cc2C(F)(F)F)CCN1C` (stereo in doubt) [Example 198, N-[5-[6-(cyclopropylmethoxy)pyridin-3-yl]-4-fluoro-2-[(3R)-3,4-dimethylpiperazin-1-yl]phenyl]-6-oxo-4-(trifluoromethyl)-1H-pyridine-3-carboxamide], for which the pKd is 9.18.

With `C[C@@H]1CN(c2cc(F)c(C3=CCN(c4ccccc4)CC3)cc2NC(=O)c2c[nH]c(=O)cc2C(F)(F)F)C[C@H](C)N1C` [Example 73, N-[4-fluoro-5-(1-phenyl-3,6-dihydro-2H-pyridin-4-yl)-2-[(3R,5S)-3,4,5-trimethylpiperazin-1-yl]phenyl]-6-oxo-4-(trifluoromethyl)-1H-pyridine-3-carboxamide], the pKd is 8.44. Turning to `CC1CN(c2cc(F)c(-c3cnc(N4CCOCC4)nc3)cc2NC(=O)c2ccc(F)cc2C(F)(F)F)CCN1C` (stereo in doubt) [Example 299, 4-fluoro-N-[4-fluoro-5-(2-morpholin-4-ylpyrimidin-5-yl)-2-[(3R)-3,4-dimethylpiperazin-1-yl]phenyl]-2-(trifluoromethyl)benzamide], the pKd is 9.24. With `C[C@@H]1CN(c2cc(F)c(C3=CCOCC3)cc2NC(=O)c2c[nH]c(=O)cc2C(F)(F)F)C[C@H](C)N1C` [Example 94, N-[5-(3,6-dihydro-2H-pyran-4-yl)-4-fluoro-2-[(3R,5S)-3,4,5-trimethylpiperazin-1-yl]phenyl]-6-oxo-4-(trifluoromethyl)-1H-pyridine-3-carboxamide], the pKd is 8.39. For the molecule `C[C@@H]1CN(c2cc(F)c(-c3ccc(N4CCOCC4)nn3)cc2NC(=O)c2c[nH]c(=O)cc2C(F)(F)F)C[C@H](C)N1C` [Example 384, N-[4-fluoro-5-(6-morpholin-4-ylpyridazin-3-yl)-2-[(3R,5S)-3,4,5-trimethylpiperazin-1-yl]phenyl]-6-oxo-4-(trifluoromethyl)-1H-pyridine-3-carboxamide], the pKd is 8.82.

With `C[C@@H]1CN(c2ncc(-c3cc(NC(=O)c4cn(C)c(=O)cc4C(F)(F)F)c(N4C[C@@H](C)N(C)[C@@H](C)C4)cc3F)cn2)C[C@H](C)O1` [Example 246, N-[4-fluoro-5-[2-[(2R,6S)-2,6-dimethylmorpholin-4-yl]pyrimidin-5-yl]-2-[(3S,5R)-3,4,5-trimethylpiperazin-1-yl]phenyl]-1-methyl-6-oxo-4-(trifluoromethyl)pyridine-3-carboxamide], the pKd is 8.60. `C[C@@H]1CN(c2cc(F)c(-c3cnc(N4CCN(C(=O)CCC(=O)O)CC4)nc3)cc2NC(=O)c2c[nH]c(=O)cc2C(F)(F)F)C[C@H](C)N1C` [Example 306, 4-[4-[5-[2-fluoro-5-[[6-oxo-4-(trifluoromethyl)-1H-pyridine-3-carbonyl]amino]-4-[(3R,5S)-3,4,5-trimethylpiperazin-1-yl]phenyl]pyrimidin-2-yl]piperazin-1-yl]-4-oxobutanoic acid]: the negative-log Kd (pKd) was 9.10.

Turning to `C[C@@H]1CN(c2cc(F)c(-c3cnc(N4CCOCC4)nc3)cc2NC(=O)c2ccc(F)c(Cl)c2F)C[C@H](C)N1C` [Example 266, 3-chloro-2,4-difluoro-N-[4-fluoro-5-(2-morpholin-4-ylpyrimidin-5-yl)-2-[(3R,5S)-3,4,5-trimethylpiperazin-1-yl]phenyl]benzamide], the pKd is 7.86. As for `C[C@@H]1CN(c2cc(F)c(-c3ccnc(OCC(C)(C)C)c3)cc2NC(=O)c2c[nH]c(=O)cc2C(F)(F)F)C[C@H](C)N1C` [Example 293, N-[5-[2-(2,2-dimethylpropoxy)pyridin-4-yl]-4-fluoro-2-[(3R,5S)-3,4,5-trimethylpiperazin-1-yl]phenyl]-6-oxo-4-(trifluoromethyl)-1H-pyridine-3-carboxamide], the pKd is 8.52. As to `COCCOc1ccc(-c2cc(NC(=O)c3c[nH]c(=O)cc3C(F)(F)F)c(N3C[C@@H](C)N(C)[C@@H](C)C3)cc2F)cn1` [Example 84, N-[4-fluoro-5-[6-(2-methoxyethoxy)pyridin-3-yl]-2-[(3R,5S)-3,4,5-trimethylpiperazin-1-yl]phenyl]-6-oxo-4-(trifluoromethyl)-1H-pyridine-3-carboxamide], the pKd was 9.47.

Still in this test, the particulars now being: surface plasmon resonance (SPR); read-out: WDR5 binding affinity (KD).
Consider `C[C@@H]1CN(c2cc(F)c(-c3ccc(N4CCOCC4)nc3)cc2NC(=O)c2ccc(F)cc2C(F)(F)F)C[C@H](C)N1C` [Example 547, 4-fluoro-N-[4-fluoro-5-(6-morpholin-4-ylpyridin-3-yl)-2-[(3R,5S)-3,4,5-trimethylpiperazin-1-yl]phenyl]-2-(trifluoromethyl)benzamide], for which the pKd was 8.82. For `C[C@@H]1CN(c2cc(F)c(C3=CCN(C(=O)OC4(C)COC4)C3)cc2NC(=O)c2c[nH]c(=O)cc2C(F)(F)F)C[C@H](C)N1C` [Example 490, (3-methyloxetan-3-yl) 3-[2-fluoro-5-[[6-oxo-4-(trifluoromethyl)-1H-pyridine-3-carbonyl]amino]-4-[(3R,5S)-3,4,5-trimethylpiperazin-1-yl]phenyl]-2,5-dihydropyrrole-1-carboxylate], the pKd was 8.49.

For `CC1CN(c2ccc(-c3cc(NC(=O)c4c[nH]c(=O)cc4C(F)F)c(N4C[C@@H](C)N(C)[C@@H](C)C4)cc3F)cn2)CCO1` (stereo in doubt) [Example 510, 4-(difluoromethyl)-N-[4-fluoro-5-[6-[(2R)-2-methylmorpholin-4-yl]pyridin-3-yl]-2-[(3S,5R)-3,4,5-trimethylpiperazin-1-yl]phenyl]-6-oxo-1H-pyridine-3-carboxamide], the pKd is 9.21. Consider `C[C@@H]1CN(c2ncc(-c3cc(NC(=O)c4cn(C)c(=O)cc4C(F)F)c(N4CCN(C)[C@@H](C)C4)cc3F)cn2)CCO1` (racemic) [Example 460, 4-(difluoromethyl)-N-[4-fluoro-2-[(3S)-3,4-dimethylpiperazin-1-yl]-5-[2-[(2R)-2-methylmorpholin-4-yl]pyrimidin-5-yl]phenyl]-1-methyl-6-oxopyridine-3-carboxamide], for which the pKd was 8.46.

As to `C[C@@H]1CN(c2cc(F)c(-c3csc(C(=O)NCC4CC4)n3)cc2NC(=O)c2c[nH]c(=O)cc2C(F)(F)F)C[C@H](C)N1C` [Example 531, N-(cyclopropylmethyl)-4-[2-fluoro-5-[[6-oxo-4-(trifluoromethyl)-1H-pyridine-3-carbonyl]amino]-4-[(3R,5S)-3,4,5-trimethylpiperazin-1-yl]phenyl]-1,3-thiazole-2-carboxamide], the pKd is 8.97.

As for `CC(C)OC(=O)N1CC=C(c2cc(NC(=O)c3ccc(F)cc3C(F)(F)F)c(N3CCN(C)C(C)C3)cc2F)CC1` (stereo in doubt) [Example 727, propan-2-yl 4-[2-fluoro-5-[[4-fluoro-2-(trifluoromethyl)benzoyl]amino]-4-[(3R)-3,4-dimethylpiperazin-1-yl]phenyl]-3,6-dihydro-2H-pyridine-1-carboxylate], the pKd is 8.61. As to `CC1CN(c2cc(F)c(-c3cnc(N4CCN(C(C)(C)C)CC4)nc3)cc2NC(=O)c2ccc(F)cc2C(F)(F)F)CCN1C` (stereo in doubt) [Example 557, N-[5-[2-(4-tert-butylpiperazin-1-yl)pyrimidin-5-yl]-4-fluoro-2-[(3R)-3,4-dimethylpiperazin-1-yl]phenyl]-4-fluoro-2-(trifluoromethyl)benzamide], the pKd was 8.96. Same read-out and setting: under `CC1CN(c2cc(F)c(-c3cccc(N4CCNCC4)n3)cc2NC(=O)c2c[nH]c(=O)cc2C(F)(F)F)CCN1C` (stereo in doubt) [Example 742, N-[4-fluoro-5-(6-piperazin-1-ylpyridin-2-yl)-2-[(3R)-3,4-dimethylpiperazin-1-yl]phenyl]-6-oxo-4-(trifluoromethyl)-1H-pyridine-3-carboxamide] stands 8.54; under `CC1CN(c2cc(F)c(-c3ccc(C(N)=O)c(F)c3)cc2NC(=O)c2cn(C)c(=O)cc2C(F)F)CCN1C` (stereo in doubt) [Example 652, N-[5-(4-carbamoyl-3-fluorophenyl)-4-fluoro-2-[(3R)-3,4-dimethylpiperazin-1-yl]phenyl]-4-(difluoromethyl)-1-methyl-6-oxopyridine-3-carboxamide], 8.28; under `C[C@@H]1CN(c2cc(F)c(-c3ccnc(N4CCOCC4)n3)cc2NC(=O)c2cn(C)c(=O)cc2C(F)(F)F)C[C@H](C)N1C` [Example 693, N-[4-fluoro-5-(2-morpholin-4-ylpyrimidin-4-yl)-2-[(3R,5S)-3,4,5-trimethylpiperazin-1-yl]phenyl]-1-methyl-6-oxo-4-(trifluoromethyl)pyridine-3-carboxamide], 8.32.

As to `CC1CN(c2cc(F)c(C3=CCN(c4ccnc(C#N)n4)CC3)cc2NC(=O)c2c[nH]c(=O)cc2C(F)F)CCN1C` (stereo in doubt) [Example 708, N-[5-[1-(2-cyanopyrimidin-4-yl)-3,6-dihydro-2H-pyridin-4-yl]-4-fluoro-2-[(3R)-3,4-dimethylpiperazin-1-yl]phenyl]-4-(difluoromethyl)-6-oxo-1H-pyridine-3-carboxamide], the pKd was 9.24. With `C[C@@H]1CN(c2ncc(-c3cc(NC(=O)c4cn(C)c(=O)cc4C(F)F)c(N4C[C@@H](C)N(C)[C@@H](C)C4)cc3F)cn2)CCO1` [Example 461, 4-(difluoromethyl)-N-[4-fluoro-5-[2-[(2R)-2-methylmorpholin-4-yl]pyrimidin-5-yl]-2-[(3R,5S)-3,4,5-trimethylpiperazin-1-yl]phenyl]-1-methyl-6-oxopyridine-3-carboxamide], the pKd is 8.31.
